BindingDB's records for patent US20240279215 (Cytokinetics, Incorporated, 2024)

Target: Nicotinamide phosphoribosyltransferase (Homo sapiens, UniProt P43490)
Assay: NMN Fluorescence Biochemical Assay
Protocol: Compounds described herein were assayed for their ability to stimulate the synthesis of nicotinamide mononucleotide (NMN) by the enzyme NAMPT. The human recombinant enzyme assay measures the activation of the enzyme activity by compounds using recombinant enzyme and substrates in a buffered cell-free system. The assay conditions closely mimic cellular environments. Dose responses were measured using an assay to detect the formation of nicotinamide mono-nucleotide. All experiments were performed in the 384-well format. Generally, 0.5 μL of DMSO containing varying concentrations of the test compound was mixed with 10 μL of the enzyme reagent solution. Enzyme reactions were initiated with the addition of […] containing the substrates. The final assay conditions were as follows: 6 nM human NAMPT, 2.5 mM ATP, 20 μM PRPP and 150 μM nicotinamide in 50 mM HEPES, pH 7.2, 1 mM DTT, 1 mM CHAPS 50 mM NaCl, 100 mM MgCl2. Following an incubation of 60 min at ambient temperature, 10 μL of 20% acetophenone in DMSO was added, followed by 10 μL of 2 M KOH and 40 μL of formic acid. The plates were read for fluorescence (Excitation/Emission=355 nm/460 nm) using an EnVision plate reader after 40 mins of incubation at ambient temperature.

Nicotinamide phosphoribosyltransferase, sequence (P43490 whole entry): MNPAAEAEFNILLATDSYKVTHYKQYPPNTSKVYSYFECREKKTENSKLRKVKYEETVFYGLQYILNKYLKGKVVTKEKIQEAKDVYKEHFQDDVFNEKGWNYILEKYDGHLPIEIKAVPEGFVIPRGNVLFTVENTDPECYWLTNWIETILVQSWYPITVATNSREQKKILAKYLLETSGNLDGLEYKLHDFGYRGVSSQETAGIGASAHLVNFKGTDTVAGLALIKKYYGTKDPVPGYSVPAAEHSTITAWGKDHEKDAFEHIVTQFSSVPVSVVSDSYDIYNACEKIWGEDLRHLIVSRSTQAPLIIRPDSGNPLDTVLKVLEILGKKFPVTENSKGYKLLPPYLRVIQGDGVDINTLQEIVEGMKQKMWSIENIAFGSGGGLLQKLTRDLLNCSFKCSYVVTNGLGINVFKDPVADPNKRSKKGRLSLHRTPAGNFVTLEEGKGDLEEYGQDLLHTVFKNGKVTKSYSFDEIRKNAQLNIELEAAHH

SMILES: CN(C1CCOC1)S(=O)(=O)c1ccc(NC(=O)OCc2ccc(Cl)cc2)cc1 (centres undefined) [US20240279215, Compound 342]
- EC50: 11.5 µM

SMILES: O=C(Nc1ccc(CC2CCN(CC(F)F)CC2)cc1)OCc1ccncc1 [US20240279215, Compound 52]
- EC50: 5.38 µM

SMILES: CN(Cc1ccccc1)S(=O)(=O)c1ccc(NC(=O)OCc2ccc(Cl)cc2)cc1 [US20240279215, Compound 335]
- EC50: 7.94 µM

SMILES: O=C(Nc1ccc(CN2C(=O)CC[C@@H]2c2cccnc2)cc1)OCc1ccc(Cl)cc1 [US20240279215, Compound 249]
- EC50: 15.8 µM
